Data as given in US10399939B2, “Tetrahydronaphthalene estrogen receptor modulators and uses thereof” (Genentech, Inc., priority 2015, dated 2019).
pEC50: −log10 of the molar value.

Target: ER-alpha (WT) (Homo sapiens (Human), UniProt P03372)
Test: Breast Cancer Cell ERa High Content Fluorescence Imaging Degradation Assay (ER-alpha MCF7 HCS)
Format: cell-based
Conditions: for ER-alpha (WT) MCF7 HCS (S inf): plateau of the maximal effect (ERa degradation), DMSO and 5 nM Fulvestrant define 0% and 100% changes in ESR1
Description: Example 901: Breast Cancer Cell ERa High Content Fluorescence Imaging Degradation Assay
MCF7 breast cancer cells were seeded on day 1 at a density of 10,000 cells per well in 384 well poly-lysine coated tissue culture plate (Greiner # T-3101-4), in 50 µL/well RPMI (phenol red free), 10% FBS (Charcoal stripped), containing L-glutamine. […] Compounds and controls were dispensed using a Labcyte Echo acoustic dispenser to dispense compounds with a pre-defined serial dilution (1.8×, 10 point, in duplicate) and appropriate backfill and control compounds (final total volume transferred was 417.5 nL and compound dispense volume ranges from 2.5 nL to 417.5 nL; 0.84% DMSO (v/v) final), ultimately producing a concentration range from 0.05 nM to 835 nM. Cell plates were incubated at 37° C., for 4 hours. Fixation and permeabilization were carried out using a Biotek EL406 plate washer and dispenser as follows. Cells were fixed by addition of 15 μL of 16% paraformaldehyde (Electron Microscopy Sciences #15710-S) directly to the 50 μL cell culture medium in each well using the peristaltic pump 5 μL cassette on a Biotek EL406 (final concentration of formaldehyde was 3.7% w/v). Samples were incubated 30 minutes. Well contents was aspirated and 50 μL/well of Phosphate Buffered Saline (PBS) containing 0.5% w/v bovine serum albumen, 0.5% v/v Triton X-100 (Antibody Dilution Buffer) was added to each well. Samples were incubated for 30 minutes. Well contents were aspirated and washed 3 times with 100 μL/well of PBS. Immunofluorescence staining of estrogen receptor alpha (ESR1) was carried out using a Biotek EL406 plate washer and dispenser as follows. The well supernatant was aspirated from the wells and 25 μL/well of anti-ESR1 mAb (F10) (Santa Cruz sc-8002) diluted 1:1000 in Antibody Dilution Buffer was dispensed. Samples were incubated for 2 hours at room temperature. Samples were washed 4 times with 100 μL/well of PBS. 25 μL (microliters)/well of secondary antibody solution (Alexafluor® 488 conjugate anti-mouse IgG (LifeTechnologies #A21202) diluted 1:1000 and Hoechst 33342 1 μg/ml diluted in Antibody Dilution Buffer) were dispensed into each well. Samples were incubated for 2 hours at room temperature. Samples were washed 3 times with 100 μL/well of PBS using a Biotek EL406. Quantitative fluorescence imaging of ESR1 was carried out using a Cellomics Arrayscan V® (Thermo). Fluorescence images of the samples (Channel 1: XF53 Hoechst (DNA stain); Channel 2: XF53 FITC (ESR1 stain)) were acquired using a Cellomics VTI Arrayscan using the Bioapplication “Compartmental Analysis” using the auto-exposure (based on DMSO control wells) setting “peak target percentile” set to 25% target saturation for both channels. Channel 1 (DNA stain) was used to define the nuclear region (Circ). Measurements of “Mean_CircAvgIntCh2”, which is the Alexafluor 488 fluorescence intensity (ESR1) within the nuclear region, was measured on a per cell basis and averaged over all the measured cells. Data analysis was carried out using Genedata Screener Software, with DMSO and 5 nM Fulvestrant treated samples being used to define the 0% and 100% changes in ESR1. The “Robust Fit” method was used to define the inflexion point of curve (EC50) and the plateau of the maximal effect (Sinf).

[1] = MCF7 breast cancer cells, 4 hours incubation, inflexion point of curve

Sequence of ER-alpha (WT) (P03372 whole entry): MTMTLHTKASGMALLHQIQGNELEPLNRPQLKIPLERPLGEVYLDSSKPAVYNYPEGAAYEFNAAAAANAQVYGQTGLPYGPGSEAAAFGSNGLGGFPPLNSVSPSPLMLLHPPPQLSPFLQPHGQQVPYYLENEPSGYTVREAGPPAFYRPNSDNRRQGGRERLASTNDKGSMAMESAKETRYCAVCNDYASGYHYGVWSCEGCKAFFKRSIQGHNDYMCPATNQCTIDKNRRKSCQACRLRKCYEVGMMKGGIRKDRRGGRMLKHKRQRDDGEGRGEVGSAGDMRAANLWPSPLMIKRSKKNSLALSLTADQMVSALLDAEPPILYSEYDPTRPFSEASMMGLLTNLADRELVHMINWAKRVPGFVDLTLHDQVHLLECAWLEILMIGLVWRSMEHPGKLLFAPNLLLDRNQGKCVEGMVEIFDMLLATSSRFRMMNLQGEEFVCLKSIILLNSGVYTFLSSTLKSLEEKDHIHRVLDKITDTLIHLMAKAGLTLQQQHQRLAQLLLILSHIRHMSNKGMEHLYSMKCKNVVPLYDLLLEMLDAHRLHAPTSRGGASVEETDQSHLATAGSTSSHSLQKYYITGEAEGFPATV

Row | pEC50 [1] | ER-alpha (WT) MCF7 HCS (S inf) (MCF7 breast cancer cells) [%] | ER-alpha (WT) MCF7 HCS (EC50) [1] [µmol] | degradation activities measured as ER-alpha MCF7 HCS Sinf (%) values (in words) (MCF7 cells) | SMILES
1 | 9.43 | −100 | – | – | Oc1ccc2c(c1)CC[C@H](c1ccccc1)[C@@H]2c1ccc(OCCN2CC(CF)C2)cc1 [Compound 101, (1R,2S)-1-[4-[2-[3-(fluoromethyl)azetidin-1-yl]ethoxy]phenyl]-2-phenyl-tetralin-6-ol]
2 | 10.39 | −98.7 | – | – | Oc1ccc2c(c1)CC[C@H](c1ccccc1)[C@@H]2c1c(F)cc(OCCN2CC(CF)C2)cc1F [Compound 105, (1S,2S)-1-[2,6-difluoro-4-[2-[3-(fluoromethyl)azetidin-1-yl]ethoxy]phenyl]-2-phenyl-tetralin-6-ol]
3 | – | – | >0.10 | – | Oc1ccc2c(c1)CC[C@@H](c1ccccc1)[C@H]2c1ccc(OC2CN(CCCF)C2)cc1 [Compound 129, (5S,6R)-5-(4-((1-(3-fluoropropyl)azetidin-3-yl)oxy)phenyl)-6-phenyl-5,6,7,8-tetrahydronaphthalen-2-ol]
4 | 9.64 | −91.4 | – | – | CS(=O)(=O)c1ccc([C@H]2CCc3cc(O)ccc3[C@H]2c2ccc(OCCN3CC(CF)C3)cc2)cc1 [Compound 117, (5R,6S)-5-(4-(2-(3-(fluoromethyl)azetidin-1-yl)ethoxy)phenyl)-6-(4-(methylsulfonyl)phenyl)-5,6,7,8-tetrahydronaphthalen-2-ol]
5 | 10.59 | −43.35 | – | low | CN1CC(CCOc2ccc([C@H]3c4ccc(O)cc4CC[C@H]3c3ccccc3)cc2)C1 (stereo in doubt) [B, (5S,6R)-5-(4-(2-(1-methylazetidin-3-yl)ethoxy)phenyl)-6-phenyl-5,6,7,8-tetrahydronaphthalen-2-ol, reference compound]
6 | 10.43 | −93.4 | – | – | C[C@@H](COc1ccc([C@H]2c3ccc(O)cc3CC[C@H]2c2ccccc2)cc1)N1CC[C@@H](CF)C1 [Compound 124, (5S,6R)-5-(4-((S)-2-((R)-3-(fluoromethyl)pyrrolidin-1-yl)propoxy)phenyl)-6-phenyl-5,6,7,8-tetrahydronaphthalen-2-ol]
7 | 10.00 | −94.2 | – | – | Oc1ccc2c(c1)CC[C@@H](c1ccccc1)[C@H]2c1ccc(OCCN2CCC(CF)C2)cc1 (stereo partly drawn) [Compound 114, (5S,6R)-5-(4-(2-(3-(fluoromethyl)pyrrolidin-1-yl)ethoxy)phenyl)-6-phenyl-5,6,7,8-tetrahydronaphthalen-2-ol]
8 | 10.41 | −99.2 | – | – | N#Cc1ccc([C@@H]2CCc3cc(O)ccc3[C@@H]2c2ccc(OCCN3CC(CF)C3)cc2)cc1 [Compound 134, 4-((1S,2R)-1-(4-(2-(3-(fluoromethyl)azetidin-1-yl)ethoxy)phenyl)-6-hydroxy-1,2,3,4-tetrahydronaphthalen-2-yl)benzonitrile]
9 | 7.77 | −30 | – | – | C[C@@H](COc1ccc([C@@H]2c3ccc(O)cc3CC[C@@H]2c2ccccc2)cc1)N1CC[C@@H](CF)C1 [Compound 123, (5R,6S)-5-(4-((S)-2-((R)-3-(fluoromethyl)pyrrolidin-1-yl)propoxy)phenyl)-6-phenyl-5,6,7,8-tetrahydronaphthalen-2-ol]
10 | 9.75 | −93.6 | – | – | Oc1ccc2c(c1)CC[C@@H](c1ccccc1)[C@H]2c1ccc(OCCN2CC(CCl)C2)cc1 [Compound 113, (5S,6R)-5-(4-(2-(3-(chloromethyl)azetidin-1-yl)ethoxy)phenyl)-6-phenyl-5,6,7,8-tetrahydronaphthalen-2-ol]
11 | – | −73.5 | – | – | Oc1ccc2c(c1)CC[C@H](c1ccccc1)[C@@H]2c1ccc(OCCN2CCCC2)cc1 [lasofoxifene, (5R,6S)-6-phenyl-5-(4-(2-(pyrrolidin-1-yl)ethoxy)phenyl)-5,6,7,8-tetrahydronaphthalen-2-ol, reference compound]
12 | 6.73 | −80 | – | – | Oc1cccc2c1[C@H](c1ccc(OCCN3CC(CF)C3)cc1)[C@H](c1ccccc1)CC2 [Compound 136, (7R,8S)-8-(4-(2-(3-(fluoromethyl)azetidin-1-yl)ethoxy)phenyl)-7-phenyl-5,6,7,8-tetrahydronaphthalen-1-ol]
13 | 10.44 | −98.8 | – | – | Oc1ccc2c(c1)CC[C@H](c1ccccc1)[C@@H]2c1ccc(OCCN2CC(CF)C2)cc1F [Compound 120, (5S,6S)-5-(2-fluoro-4-(2-(3-(fluoromethyl)azetidin-1-yl)ethoxy)phenyl)-6-phenyl-5,6,7,8-tetrahydronaphthalen-2-ol]
14 | 9.68 | −98.5 | – | – | Oc1ccc2c(c1)CCC1(CCCC1)[C@H]2c1ccc(OCCN2CC(CF)C2)cc1 [Compound 121, (S)-1′-(4-(2-(3-(fluoromethyl)azetidin-1-yl)ethoxy)phenyl)-3′,4′-dihydro-1′H-spiro[cyclopentane-1,2′-naphthalen]-6′-ol]
15 | 9.97 | −99.3 | – | – | Oc1ccc2c(c1)CC[C@H](c1ccccc1)[C@@H]2c1ccc(OC2CN(CCCF)C2)cc1 [Compound 130, (5R,6S)-5-(4-((1-(3-fluoropropyl)azetidin-3-yl)oxy)phenyl)-6-phenyl-5,6,7,8-tetrahydronaphthalen-2-ol]
16 | 7.53 | −82 | – | – | Oc1cccc2c1[C@@H](c1ccc(OCCN3CC(CF)C3)cc1)[C@@H](c1ccccc1)CC2 [Compound 135, (7S,8R)-8-(4-(2-(3-(fluoromethyl)azetidin-1-yl)ethoxy)phenyl)-7-phenyl-5,6,7,8-tetrahydronaphthalen-1-ol]
17 | 9.11 | −45 | – | – | Oc1ccc2c(c1)CC[C@@H](c1ccccc1)[C@H]2c1ccc(NCCN2CC[C@@H](CF)C2)cc1 [Compound 140, (5S,6R)-5-(4-((2-((R)-3-(fluoromethyl)pyrrolidin-1-yl)ethyl)amino)phenyl)-6-phenyl-5,6,7,8-tetrahydronaphthalen-2-ol]
18 | 7.40 | −75 | – | – | CS(=O)(=O)c1ccc([C@@H]2CCc3cc(O)ccc3[C@@H]2c2ccc(OCCN3CC(CF)C3)cc2)cc1 [Compound 115, (5S,6R)-5-(4-(2-(3-(fluoromethyl)azetidin-1-yl)ethoxy)phenyl)-6-(4-(methylsulfonyl)phenyl)-5,6,7,8-tetrahydronaphthalen-2-ol]
19 | 8.09 | −94.7 | – | – | Oc1ccc2c(c1)CC[C@@H](c1ccccc1)[C@H]2c1ccc(OCCN2CC(CF)C2)cc1 [Compound 102, (1S,2R)-1-[4-[2-[3-(fluoromethyl)azetidin-1-yl]ethoxy]phenyl]-2-phenyl-tetralin-6-ol]
20 | 10.54 | −99.9 | – | – | Oc1ccc2c(c1)CC[C@H](c1ccccc1)[C@@H]2c1ccc(NC2CN(CCCF)C2)cc1 [Compound 132, (5R,6S)-5-(4-((1-(3-fluoropropyl)azetidin-3-yl)amino)phenyl)-6-phenyl-5,6,7,8-tetrahydronaphthalen-2-ol]
21 | 9.17 | −97.1 | – | – | C[C@H](CN1CC[C@@H](CF)C1)Oc1ccc([C@H]2c3ccc(O)cc3CC[C@H]2c2ccccc2)cc1 [Compound 126, (5S,6R)-5-(4-(((R)-1-((R)-3-(fluoromethyl)pyrrolidin-1-yl)propan-2-yl)oxy)phenyl)-6-phenyl-5,6,7,8-tetrahydronaphthalen-2-ol]
